{
  "source": "paper PMC6370756",
  "about": "(2019)",
  "key": {"[1]": {"system": "SP-PGQ-1 (DNA, G4) GGGCAACTTGGCTGGGGTCTAGTTCCACGGGACGGG", "experiment": "ITC", "conditions": "K+ (10 mM potassium phosphate); pH 7.2, 25 °C; two-site fit, high-affinity site; site 1 of 2"}, "[2]": {"system": "SP-PGQ-3 (DNA, G4) GGGCTAATAGGGAGAGCAGGGACGGGG", "experiment": "ITC", "conditions": "K+ (10 mM potassium phosphate); pH 7.2, 25 °C; two-site fit, high-affinity site; site 1 of 2"}},
  "data": [
    {"compound": "C[n+]1ccc(-c2c3nc(c(-c4cc[n+](C)cc4)c4ccc([nH]4)c(-c4cc[n+](C)cc4)c4nc(c(-c5cc[n+](C)cc5)c5ccc2[nH]5)C=C4)C=C3)cc1", "values": [
      {"measurement": "Ka", "setting": "[1]", "result": "1.59e+06", "unit": "M⁻¹"},
      {"measurement": "Ka", "setting": "[2]", "result": "2.49e+07", "unit": "M⁻¹"}
    ]}
  ]
}
